These results are taken from patent US20100093861A1, “TREATMENT OF INSULIN RESISTANCE OR DISEASES ASSOCIATED WITH INSULIN RESISTANCE” (Stevia ApS, priority 2006, published 2010).

The test system of one assay is INS-1. Put plainly: Gene expression in islets from diabetic KKAy-mice, real time RT-PCR (Example 2): INS-1. The following applies: islets of KKAy-mice after nine weeks treatment, normalized to 18S rRNA. It counts as in vivo. As for the experimental part:
A the end of the nine week period of the in vivo study in example 1 RNA was purified from Islets, muscle, liver and fat from the three experimental groups, using standard techniques as described in Kiergen, RNA easy.
Gene expression of PDX-1, IRS1, Beta2, 11beta-HSD-1, Akt1, C/EBP-alpha, CPT1, GLUT2, IGF1, IR and Ins1 was measured with Real time RT-PCR using Taq Man Assays normalized to 18S rRNA, using the standard protocol (ABI, USA). All reagents were obtained from (ABI, USA). All probes are standard probes obtainable from ABI, USA, under the specific probe code number, given in respect of each gene.

The subject of another assay is Pdx1/Ipf1. Put plainly: Relative real time RT-PCR in islets of KKAy mice (Example 3): Pdx1/Ipf1. It counts as in vivo. The following applies: 9 weeks. As for the experimental part: (§1) Islets were isolated by the collagenase digestion technique. In brief, the animals were anesthetized with pentobarbital (50 mg/kg intraperitoneally) and midline laparotomy was performed. The pancreas was retrogradely filled with 3 mL ice-cold Hanks balanced salt solution (([HBSS] Sigma Chemical, St Louis, Mo.) supplemented with 0.3 mg/ml collagenase Boehringer Mannheim GmbH, Germany). The pancreas was subsequently removed and incubated for 19 minutes at 37° C. After rinsing in HBSS, the islets were handpicked under a stereomicroscope and immediately transferred to a tubes containing 1 ml Trizol (Gibco/Invitrogene, Calsbad, Calif., USA). The islets isolated from the NMRI mice were incubated overnight at 37° C. and 95% normal atmosphere/5% CO2 in 10 ml RPMI 1640 containing 11.1 mmol/L glucose supplemented with penicillin G and 100 μg/mL streptomycin (all Gibco/Invitrogene, Calsbad, Calif., USA).
(§2) For each group, islets from 3-4 mice (180-200 islets) were pooled in 1 ml Trizol reagent (Gibco/lnvitrogene, Calsbad, Calif., USA) before RNA purification. Total RNA was extracted according to the manufactures' instructions. RNA was quantified by measuring absorbance at 260 and 280 nm. The quality of the RNA was checked by the Agilent 2100 bioanalyzer (Agilent, Santa Clara, USA). […]

The test system of another assay is Beta2/neuroD. Description: Relative real time RT-PCR in islets of KKAy mice (Example 3): Beta2/neuroD. The format is in vivo. The following applies: 9 weeks, normalized to 18S rRNA. On the procedure: as §1, §2
The test system of the next assay is Ins1. Description: Relative real time RT-PCR in islets of KKAy mice (Example 3): Ins1. It counts as in vivo. Conditions: 9 weeks. On the procedure: as §1, §2
Another assay concerns C/EBPalpha. Description: Relative real time RT-PCR in islets of KKAy mice (Example 3): C/EBPalpha. The format is in vivo. Conditions: 9 weeks. As for the experimental part: as §1, §2
A further assay has as its system GLUT2. Put plainly: Affymetrix gene chip analysis of KKAy islets: GLUT2. Conditions: ISV vs. KKAy control islets, 9 weeks. The format is in vivo, mice. On the procedure:
(§3) cRNA preparation and in vitro transcription: In total 6 Affymetrix arrays MOE430 2.0 probe array cartridge were used i.e. for analysis of 3 replicas for the KKAy control group and the ISV group, respectively. Each of the 6 samples consisted of pooled RNA from 3-4 KKAy mice. Preparation of target for hybridization was prepared from 340 ng of total RNA using MessageAmp™ II aRNA Amplification Kits (Ambion), according to the manufacturers instructions. Arrays were hybridised and scanned as described elsewhere (Kruhoffer et al., 2005).

A further assay concerns IR. Description: Affymetrix gene chip analysis of KKAy islets: IR. The format is in vivo, mice. Conditions: ISV vs. KKAy control islets, 9 weeks. As for the experimental part: as §3
The test system of another assay is Somatostatin. Put plainly: Affymetrix gene chip analysis of KKAy islets: Somatostatin. The format is in vivo, mice. The following applies: ISV vs. KKAy control islets, 9 weeks. As for the experimental part: as §3
The next assay relates to Nkx6-1. Put plainly: Affymetrix gene chip analysis of KKAy islets: Nkx6-1. It counts as in vivo, mice. Conditions: ISV vs. KKAy control islets, 9 weeks. As for the experimental part: as §3
The subject of assay [1] is isolated NMRI mice islets. Put plainly: Glucose stimulated insulin secretion (GSIS) from isolated NMRI mice islets. The format is cell-based. On the procedure:
For in vitro studies with steviol and ISV, we included adult female NMRI mice (Taconic, Ry Denmark), all weighing 22-25 g. We used 12 hours light/dark cycle. The Danish Council for Animal experiments has approved the study.
as §1
The NMRI female mice islets were rinsed twice with a modified Krebs-Ringer buffer (KRB) supplemented with 3.3 mmol/L glucose and 0.1% human serum albumin (Sigma). The KRB contained 125 mmol/L NaCl, 5.9 mmol/L KCl, 1.2 MgCl, 1.28 CaCl2 and 25 mmol/L HEPES (Ph 7.4: all Sigma). Single islets were incubated in 100 μL KRB containing glucose (3.3 and 16.7 mmol/L) and steviol/ISV according to the protocols (Jeppesen et al., 2000). After incubation (60 min), 50 μL of the medium was frozen for RIA analysis of insulin.

Regarding `C[C@@]12CC[C@@H]3[C@@](CC[C@H]4[C@@]3(C)CCC[C@@]4(C)C(=O)O)(CC1=O)C2` (single isomer, unassigned; ent-16) [ISV, ent-16-ketobeyeran-19-oic acid], the “increased expression of INS-1 compared to standard diet” value in the assay on INS-1 is reported as 132%. For the same compound, in the assay with Pdx1/Ipf1 (RT-PCR), the “up regulation of Pdx1” value was roughly 2 fold. In addition, in the assay on Pdx1/Ipf1 (normalized to 18S rRNA), the “increased expression of Pdx1/Ipf1, ISV group vs. control group” value is recorded as 96%. For the same compound, the “increased expression of Beta2/neuroD, ISV group vs. control group” value with Beta2/neuroD is reported as 60%. In the assay with Ins1 (RT-PCR), the “increase in Ins1 expression” value is listed as “more than 2 fold”. Also, in the assay on Ins1 (normalized to 18S rRNA), the “increased expression of Ins1, ISV group vs. control group” value turned out to be 132%. The “reduction of C/EBP-alpha mRNA expression” value in the assay on C/EBPalpha (RT-PCR) came out at 2 fold. Moreover, the “decreased expression of C/EBPalpha, ISV group vs. control group” value in the assay on C/EBPalpha (normalized to 18S rRNA) amounted to 49%. Further, the “array: change of GLUT2 expression” value in the assay with GLUT2 is recorded as “upregulation”. Also, the “array: change of IR expression” value in the assay on IR is reported as “no changes”. Besides, the “array: increased expression in Somatostatin” value with Somatostatin worked out at 2.3 fold. Also, the “array: increased expression in Nkx6-1” value with Nkx6-1 was 2.64 fold. Also, the “effect on insulin secretion at low glucose” value in [1] (3.3 mmol/L glucose, 60 min incubation) is listed as “did not potentiate the insulin secretion”. Also, in assay [1] (16.7 mmol/L glucose, 60 min incubation), the “concentration giving apparent maximal effect on glucose stimulated insulin secretion” value is recorded as “approx. 10^−8 mol/l”. The “potency on GSIS, isosteviol compared with steviol, at higher concentration” value in assay [1] (10^−8 mol/l-10^−6 mol/l, 16.7 mmol/l glucose, 60 minutes) was “not found any significant difference”. Further, the “potency on GSIS, isosteviol compared with steviol, at low concentration” value in assay [1] (10^−10 mol/l, 16.7 mmol/l glucose, 60 minutes) was “significantly more potent than steviol”. In addition, in assay [1] (ISV 10^−12 mol/l-10^−8 mol/l, 60 min incubation), the “effect on insulin secretion stimulated by 16.7 mmol/L glucose” value is “potentiated insulin secretion”.
